According to patent US4273777A, “Methods of treating mammals suffering from inflammation and pain” (Laboratorios Bago S.A., priority 1980, dated 1981):

Tests used:
[1] = Influence on the gastro-intestinal tract (ulceration of the gastric epithelium, pylorus ligated, Shay et al.); type: in vivo, rat (Sprague Dawley)
Experimental: Influence on the gastro-intestinal tract
Ten male rats of Sprague Dawley strain, weighing 200-300 g were used for each compound tested. According to the method of Shay et al. (Shay, H., Komapov. S. A., Feb. S. S., Meranir, D., Gruenstein, M., Siplet, H. Gastroenterology 5, 43, 1945), under anesthesia, the pylorus was ligated and 4 hours later test compounds were orally administered. The animal was sacrificed 1 hour after compound administration. The stomach was removed and examined for macroscopic damage. The ulceration of the gastric epithelium was evaluated by the following evaluation: 0=no hemorrhage sites; 1=some isolated hemorrhagic sites; 2=redness of the gastric epithelium; 3=1 to 5 small ulcers with a diameter smaller than 3 mm; 4=many small ulcers; 5=ulcers--greater than 3 mm; 6=perforated ulcer.

[2] = Randall-Selitto test (analgesic activity, carrageenin inflamed foot); type: in vivo, mouse (Rockland); conditions: oral, 30 minutes before carrageenin; control (water) 0; doses as for tail pressure (pivaloyloxymethyl TPA ester 166 mg/kg, 66 mg/kg)
Experimental: Randall-Selitto's method: Ten male mice of Rockland strain weighing 25 g were used for each compound tested. 0.1 ml of 1% carrageenin saline suspension was injected into the subplantar region of the right foot. The test compounds were orally administered 30 minutes before the injection. At hourly intervals for 3 hours after the carrageenin injection, the pain threshold for the inflammed feet was measured determining the amount of pressure with an analgesy meter.

[3] = Tail pressure test (analgesic activity); type: in vivo, mouse (Rockland); conditions: oral; control (water) 0; dose mg/kg: ASA 100, pivaloyloxymethyl TPA ester 166 and 66, CPA 50, TPA 47, phthalidyl CPA ester 72, pivaloyloxymethyl CPA ester 69, xylyl anthranylates 77 (phthalidyl)/74 (pivaloyloxymethyl), TAA 50, its phthalidyl ester 73.5, pivaloyloxymethyl ester 82
Experimental: Tail pressure test: Ten male mice of Rockland strain weighing 20-25 g were used for each compound tested. The response threshold on applying pressure to the tail was determined with an analgesy meter at 15 and 60 minutes after oral administration of the test compound. The pressure at which a struggle was elicited was read.

[4] = Carrageenin induced edema test (anti-inflammatory activity); set-up: species or system rat (Sprague Dawley); conditions: rat, in vivo
Experimental: Anti-inflammatory Activity (Carrageenin induced edema test)
Fifteen to twenty male rats of Sprague Dawley strain weighing 150-200 g, were employed for each compound tested. 0.1 ml of 1% carrageenin saline suspension was injected into the subplantar region of the right hind-paw. The test compounds were orally administered 30 minutes prior to the injection of carrageenin and the foot volume was determined 1, 3 and 5 hours after the injection of carrageenin. The percent swelling in the foot was obtained by comparing the volume before and after the injection of carrageenin, and the rate of inhibition in the treated animals was calculated.

[5] = oral, 1 hour after compound, score 0=no hemorrhage sites to 6=perforated ulcer, control 3.0, dose mg/kg: phenylbutazone 75, ASA 100, TPA 47, pivaloyloxymethyl TPA ester 66, CPA 150, phthalidyl CPA ester 216, pivaloyloxymethyl CPA ester 207, xylyl anthranylates 186/196, TAA 60, its esters 88/84.5
[6] = versus control (distilled water) 3.0, oral

SMILES | Evaluation (ulceration of the gastric epithelium) [1, 5] | Increase (of ulceration evaluation over control) [1, 6] | Evaluation (ulceration of the gastric epithelium) ([1]; rat, in vivo, po) | Increase (of ulceration evaluation over control) ([1]; rat, in vivo, po) | Relative strength, Randall-Selitto test [2] | Relative strength, Tail pressure test [3] | anti-inflammatory activity, in words [4]
O=C(O)c1cccnc1Nc1cccc(C(F)(F)F)c1 [2-(3'-trifluoromethyl-anilino)-3-pyridinecarboxylic acid, reference compound] | 3.9 | 0.9 | – | – | – | – | –
CC(=O)Oc1ccccc1C(=O)O [Acetylsalicylic acid (ASA), Acetylsalicylic acid, reference compound] | – | – | 4.1 | 1.1 | – | – | –
O=C(O)c1ccccc1Nc1cccc(C(F)(F)F)c1 [N-(3'-trifluorotolyl)-anthranylic acid, reference compound] | 4.9 | 1.9 | – | – | 5.3 | 0.5 | –
CCCCC1C(=O)N(c2ccccc2)N(c2ccccc2)C1=O [Phenylbutazone, reference compound] | – | – | 5.5 | 2.5 | – | – | –
Cc1cccc(Nc2ccccc2C(=O)OC2OC(=O)c3ccccc32)c1C (stereo not shown) [Phthalidyl N-(2',3'-xylyl) anthranylate] | 3.3 | 0.3 | – | – | 1.37 | 0.56 | –
O=C(OC1OC(=O)c2ccccc21)c1ccccc1Nc1cccc(C(F)(F)F)c1 (stereo not shown) [Phthalidyl N-(3'-trifluorotolyl) anthranylate] | 3.5 | 0.5 | – | – | 10.6 | 0.74 | –
Cc1c(Cl)cccc1Nc1ncccc1C(=O)OC1OC(=O)c2ccccc21 (stereo not shown) [Phthalydil 2(3'-chloro-2'-methylanilino)pyridine 3-carboxylate] | 3.6 | 0.6 | – | – | – | – | –
Cc1c(Cl)cccc1Nc1ncccc1C(=O)OCOC(=O)C(C)(C)C [Pivaloyloxymethyl 2-(3'-chloro-2'-methylanilino)-pyridine-3-carboxylate] | 3.0 | – | – | – | – | – | –
CC(C)(C)C(=O)OCOC(=O)c1cccnc1Nc1cccc(C(F)(F)F)c1 [Pivaloyloxymethyl 2-(3'-trifluoromethylanilino)-pyridine-3-carboxylate] | 3.2 | 0.2 | – | – | – | – | act as anti-inflammatory agent more than as antinociceptive agents
Cc1cccc(Nc2ccccc2C(=O)OCOC(=O)C(C)(C)C)c1C [Pivaloyloxymethyl N-(2',3'-xylyl) anthranylate] | 3.4 | 0.4 | – | – | – | – | –
CC(C)(C)C(=O)OCOC(=O)c1ccccc1Nc1cccc(C(F)(F)F)c1 [Pivaloyloxymethyl N-(3'-trifluorotolyl) anthranylate] | 3.6 | 0.6 | – | – | – | – | –
